# According to publication PMC8353826, “Celastrol exerts a neuroprotective effect by directly binding to HMGB1 protein in cerebral ischemia–reperfusion” (Journal of Neuroinflammation, 2021):
# Tests used:
# [1] = target: T1, HMGB1 A box (Homo sapiens, UniProt P09429); test: gel-based competition with IAA-yne labelling, click TAMRA fluorescence; type: binding; conditions: covalent; blocks IAA-yne labelling of Cys; PBS
# T1 construct: A box domain, residues 1-89, N-terminal 6-His tag, modified pET-24d, E. coli BL21
# T1 sequence (P09429 1-89): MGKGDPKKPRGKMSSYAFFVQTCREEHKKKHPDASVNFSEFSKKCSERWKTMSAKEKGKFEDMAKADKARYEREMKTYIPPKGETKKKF
# [2] = target: T2, HMGB1 (primary rat cortical neurons) (Rattus norvegicus, UniProt P63159); test: CETSA in neuron lysate, Western blot; competition with cel-p pull-down; type: biochemical; conditions: 20 μM cel, 1 h, 37-82 °C (CETSA); 8 × cel in pull-down
# T2 construct: endogenous full-length protein in living primary cortical neurons or their lysate
# T2 sequence (P63159 2-215): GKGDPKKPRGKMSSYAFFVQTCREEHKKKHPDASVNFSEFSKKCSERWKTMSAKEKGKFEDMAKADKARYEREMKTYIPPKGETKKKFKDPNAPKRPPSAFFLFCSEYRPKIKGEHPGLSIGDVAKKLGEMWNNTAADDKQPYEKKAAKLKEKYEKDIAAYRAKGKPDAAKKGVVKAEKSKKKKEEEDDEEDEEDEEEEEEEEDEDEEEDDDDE
# [3] = target: T3, HMGB1 B box (Homo sapiens, UniProt P09429); test: gel-based competition with IAA-yne labelling, click TAMRA fluorescence; type: binding; conditions: covalent; blocks IAA-yne labelling of Cys; PBS
# T3 construct: B box domain, residues 90-175, N-terminal 6-His tag, modified pET-24d, E. coli BL21
# T3 sequence (P09429 90-175): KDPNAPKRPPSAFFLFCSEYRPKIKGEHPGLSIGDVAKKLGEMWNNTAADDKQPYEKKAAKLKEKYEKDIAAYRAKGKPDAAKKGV
# [4] = target: T4, recombinant human HMGB1 protein (full-length) (Homo sapiens, UniProt P09429); test: as above; type: binding; conditions: covalent; Cys 106 of disulfide form or Cys 23, 45, 106 of fully reduced form, also other sites; PBS
# T4 construct: full-length recombinant protein, commercial (Abcam); disulfide form or DTT-reduced
# T4 sequence (P09429 1-215): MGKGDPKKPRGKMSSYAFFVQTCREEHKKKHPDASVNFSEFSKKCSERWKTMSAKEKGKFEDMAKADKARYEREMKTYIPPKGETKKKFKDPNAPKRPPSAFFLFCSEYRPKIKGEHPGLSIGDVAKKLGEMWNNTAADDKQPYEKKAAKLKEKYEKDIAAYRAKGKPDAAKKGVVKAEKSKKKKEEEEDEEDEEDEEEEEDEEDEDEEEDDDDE
# [5] = target: T1, HMGB1 A box; test: in-gel fluorescence labelling by probe, click TAMRA azide; type: binding; conditions: labelled compound; labelling in presence of IAA; PBS
# [6] = target: T3, HMGB1 B box; test: as above; type: binding; conditions: labelled compound; labelling in presence of IAA; PBS
# [7] = target: T2, HMGB1 (primary rat cortical neurons); test: probe pull-down, TMT LC-MS/MS and Western blot; type: cell-based; conditions: labelled compound; 4 μM cel-p, 4 h, living neurons, with or without OGD
SMILES,"gel-based competition with IAA-yne labelling, click TAMRA fluorescence [1]","CETSA in neuron lysate, Western blot; competition with cel-p pull-down [2]","gel-based competition with IAA-yne labelling, click TAMRA fluorescence [3]","gel-based competition with IAA-yne labelling, click TAMRA fluorescence [4]","in-gel fluorescence labelling by probe, click TAMRA azide [5]","in-gel fluorescence labelling by probe, click TAMRA azide [6]","probe pull-down, TMT LC-MS/MS and Western blot [7]"
"CC1=C(O)C(=O)C=C2C1=CC=C1[C@@]2(C)CC[C@@]2(C)[C@@H]3C[C@](C)(C(=O)O)CC[C@]3(C)CC[C@]12C [cel, celastrol]",Cel also almost completely blocked the binding of IAA-yne to the Cys group,The CETSA results also proved the direct binding of cel and HMGB1,Cel also almost completely blocked the binding of IAA-yne to the Cys group,Cel almost completely competed for the binding of IAA-yne to HMGB1 or DTT reduced HMGB1,,,
C#CCNC(=O)[C@]1(C)CC[C@]2(C)CC[C@]3(C)C4=CC=C5C(=CC(=O)C(O)=C5C)[C@]4(C)CC[C@@]3(C)[C@@H]2C1 [cel-p],,,,,The binding of cel-p to the A and B boxes could not be blocked by IAA,The binding of cel-p to the A and B boxes could not be blocked by IAA,could completely compete the binding of cel-p to HMGB1
